The text below walks through data of ChEMBL document CHEMBL5113394, “Design and synthesis of harmiquins, harmine and chloroquine hybrids as potent antiplasmodial agents” (Eur J Med Chem, 2022).

Data set [1] relates to Plasmodium falciparum. The data set is described as follows: Antiplasmodial activity against chloroquine-sensitive Plasmodium falciparum 3D7 assessed as inhibition of parasite growth incubated for 3 days by HRP2-ELISA. Type of data set: functional, organism-based. The conditions noted are these: 3D7, 72 h. A general note: ELISA stands for enzyme-linked immunosorbent assay.

In data set [2] the test system is Plasmodium falciparum. The data set is described as follows: Antiplasmodial activity against multidrug-resistant Plasmodium falciparum Dd2 assessed as inhibition of parasite growth incubated for 3 days by HRP2-ELISA. Type of data set: functional, organism-based. The conditions noted are these: Dd2, 72 h.
Data set [3] can be described thus: Resistance index, ratio of IC50 for antiplasmodial activity against multidrug-resistant Plasmodium falciparum Dd2 to IC50 for antiplasmodial activity against chloroquine-sensitive Plasmodium falciparum 3D7. Type of data set: functional.
Data set [4] is described as follows: Cytotoxicity against human HepG2 cells assessed as cell growth inhibition incubated for 1 day by neutral red assay. The class given is toxicity, cell-based.
A short description of data set [5]: Selectivity index, ratio of IC50 for cytotoxicity against human HepG2 cells to IC50 for antiplasmodial activity against chloroquine-sensitive Plasmodium falciparum 3D7. The conditions noted are these: read-out: Ratio IC50. The class given is toxicity, cell-based.
Data set [6] in a line: Inhibition of hemin (unknown origin) assessed as inhibition of heme polymerization by measuring reduction in beta-hematin formation at 1 mM measured after 48 hrs by microplate reader assay.
Data set [7] relates to Plasmodium falciparum. The data set is described as follows: Antiplasmodial activity against multidrug-resistant Plasmodium falciparum K1 assessed as inhibition of parasite growth incubated for 3 days by HRP2-ELISA. Type of data set: functional, organism-based. The conditions noted are these: K1, 72 h.
Data set [8] deals with Plasmodium falciparum. Kind of data set: Antiplasmodial activity against chloroquine-resistant Plasmodium falciparum 7G8 assessed as inhibition of parasite growth incubated for 3 days by HRP2-ELISA. The conditions noted are these: 7G8, 72 h. Type of data set: functional, organism-based.
The nature of data set [9]: Resistance index, ratio of IC50 for antiplasmodial activity against multidrug-resistant Plasmodium falciparum K1 to IC50 for antiplasmodial activity against chloroquine-sensitive Plasmodium falciparum 3D7. The class given is functional.
Data set [10] in a line: Resistance index, ratio of IC50 for antiplasmodial activity against chloroquine-resistant Plasmodium falciparum 7G8 to IC50 for antiplasmodial activity against chloroquine-sensitive Plasmodium falciparum 3D7. The class given is functional.
Data set [11] deals with Plasmodium falciparum. The data set is described as follows: Potency index, ratio of chloroquine IC50 to test compound IC50 for antiplasmodial activity against chloroquine-resistant Plasmodium falciparum 7G8 assessed as inhibition of parasite growth incubated for 3 days by HRP2-ELISA. The class given is functional. Particulars: time 3 day.
In data set [12] the test system is Plasmodium falciparum. The data set is described as follows: Potency index, ratio of chloroquine IC50 to test compound IC50 for antiplasmodial activity against chloroquine-sensitive Plasmodium falciparum 3D7 assessed as inhibition of parasite growth incubated for 3 days by HRP2-ELISA. The class given is functional. Particulars: time 3 day.
For data set [13], the system named is Plasmodium falciparum. The data set is described as follows: Potency index, ratio of chloroquine IC50 to test compound IC50 for antiplasmodial activity against multidrug-resistant Plasmodium falciparum Dd2 assessed as inhibition of parasite growth incubated for 3 days by HRP2-ELISA. The class given is functional. Particulars: time 3 day.
The subject of data set [14] is Plasmodium falciparum. Kind of data set: Potency index, ratio of chloroquine IC50 to test compound IC50 for antiplasmodial activity against multidrug-resistant Plasmodium falciparum K1 assessed as inhibition of parasite growth incubated for 3 days by HRP2-ELISA. Particulars: time 3 day. The class given is functional.

Molecules are shown by their SMILES. pIC50: −log10 of the molar value. A value given as a limit tells only on which side of the number the result lay.

In general, pIC50 refers to the IC50 on a negative log10 scale, so that one unit is a factor of ten. As a reminder, the IC50 is the concentration needed to halve the response being measured. What is called inhibition is the change of the read-out against control, counted positive when it falls.

Regarding `Cc1nccc2c1[nH]c1ccc(OCCNC(=O)CNc3ccnc4cc(Cl)ccc34)cc12`, the pIC50 was 6.52 in the data set on Plasmodium falciparum [1] and 6.27 with Plasmodium falciparum [2]. In data set [3], the Ratio IC50 was 1.7. Besides, in data set [4], the IC50 at 1 day was greater than 20000 nM. Also, the selectivity ratio in [5] is greater than 66. Also, the inhibition in [6] was less than 50%.
Turning to `Cc1nccc2c1[nH]c1cc(OCc3cn(-c4ccnc5cc(Cl)ccc45)nn3)ccc12`, the pIC50 with Plasmodium falciparum [1] was 7.02; in the data set on Plasmodium falciparum [2], 6.69; in the data set with Plasmodium falciparum [7] it was 6.52; with Plasmodium falciparum [8] it was 6.71. The figures for the Ratio IC50 in data set [3], in data set [9] and in data set [10] were 2.1, 3.1 and 2, respectively. Besides, the IC50 at 1 day in data set [4] was 6400 nM. For the same molecule, the selectivity ratio in data set [5] was 66.8. In data set [6], the inhibition is greater than 75%.
As to `Cc1nc(Cn2cc(COc3ccnc4cc(Cl)ccc34)nn2)cc2c1[nH]c1ccccc12`, the pIC50 is 4.96 with Plasmodium falciparum [1] and 5.27 with Plasmodium falciparum [2]. For the same molecule, the Ratio IC50 in data set [3] amounted to 0.4. Further, the IC50 at 1 day in [4] is greater than 100000 nM. Further, in data set [5], the selectivity ratio is greater than 9.22. The inhibition in data set [6] was 50%.
In the case of `Cc1nccc2c1[nH]c1cc(OCc3cn(CCNc4ccnc5cc(Cl)ccc45)nn3)ccc12`, the pIC50 in the data set on Plasmodium falciparum [1] is 7.24; with Plasmodium falciparum [2], 7.12; in the data set on Plasmodium falciparum [7] it was 7.47; with Plasmodium falciparum [8], 7.35. The Ratio IC50 in data set [3] stood at 1.3; in [9], 0.5; in data set [10], 0.7. In data set [4], the IC50 at 1 day came out at 6300 nM. Further, in data set [5], the selectivity ratio was found to be 110. In addition, the inhibition in data set [6] was greater than 75%.
For `COc1ccc2c3ccnc(C)c3n(Cc3cn(CCNc4ccnc5cc(Cl)ccc45)nn3)c2c1`, the pIC50 was 7.94 in the data set with Plasmodium falciparum [1], 6.69 in the data set on Plasmodium falciparum [2], 6.79 in the data set with Plasmodium falciparum [7] and 7.54 in the data set with Plasmodium falciparum [8]. Further, the half-inhibitory concentration (IC50) at 1 day in data set [4] was 14000 nM. Further, in [5], the selectivity ratio was 829. In [6], the inhibition was 50%.
Turning to `Cc1nc(CNC(=O)CNc2ccnc3cc(Cl)ccc23)cc2c1[nH]c1ccccc12`, the pIC50 was 7.89 in the data set with Plasmodium falciparum [1], 7.34 in the data set on Plasmodium falciparum [2], 7.31 in the data set on Plasmodium falciparum [7] and 7.55 with Plasmodium falciparum [8]. The Ratio IC50 was found to be 3.5 in [3], 3.7 in data set [9] and 2.1 in data set [10]. Further, the IC50 at 1 day in [4] is 18600 nM. In [5], the selectivity ratio was 1430. The inhibition in data set [6] was less than 50%.
Regarding `COc1ccc2c(c1)[nH]c1c(C)nccc12` [HARMINE], the IC50 at 1 day in data set [4] was greater than 250000 nM.
Take `Cc1nccc2c1[nH]c1ccc(OCc3cn(CCNc4ccnc5cc(Cl)ccc45)nn3)cc12`: the pIC50 in the data set with Plasmodium falciparum [1] was 7.18; with Plasmodium falciparum [2], 6.79; with Plasmodium falciparum [7], 6.85; in the data set on Plasmodium falciparum [8], 6.84. The Ratio IC50 in [3] came out at 2.4; in [9] it was 2.1; in data set [10], 2.1. Also, the IC50 at 1 day in [4] amounted to 15000 nM. For the same molecule, in data set [5], the selectivity ratio was found to be 228. Besides, the inhibition in data set [6] was greater than 75%.
Consider `COc1ccc2c3ccnc(C)c3n(CCC(=O)NCCCCNc3ccnc4cc(Cl)ccc34)c2c1`, for which, in data set [4], the IC50 at 1 day was greater than 25000 nM. The selectivity ratio in [5] was greater than 723. Besides, the inhibition in [6] was less than 50%.
For the molecule `COc1ccc2c3ccnc(C)c3n(Cc3cn(-c4ccnc5cc(Cl)ccc45)nn3)c2c1`, the pIC50 was 6.05 in the data set with Plasmodium falciparum [1] and 5.74 with Plasmodium falciparum [2]. Also, the Ratio IC50 in data set [3] is 2. Further, the IC50 at 1 day in data set [4] amounted to 19700 nM. The selectivity ratio in data set [5] was found to be 21.9. The inhibition in [6] was less than 50%.
On to `COc1ccc2c3ccnc(C)c3n(CCNC(=O)CNc3ccnc4cc(Cl)ccc34)c2c1`, for which the pIC50 was 8.70 with Plasmodium falciparum [1], 7.79 with Plasmodium falciparum [2], 7.61 in the data set on Plasmodium falciparum [7] and 8.13 with Plasmodium falciparum [8]. Also, the IC50 at 1 day in [4] was 8900 nM. In addition, in data set [5], the selectivity ratio is 4450. In addition, in [6], the inhibition was 50%. The “Ratio IC50” value is 29.8 with Plasmodium falciparum [11], 5.5 with Plasmodium falciparum [12], 22.5 with Plasmodium falciparum [13] and 15.9 in the data set on Plasmodium falciparum [14].
For the molecule `Cc1nccc2c1[nH]c1ccc(OCc3cn(-c4ccnc5cc(Cl)ccc45)nn3)cc12`, the negative-log IC50 (pIC50) in the data set on Plasmodium falciparum [1] was 5.44; in the data set with Plasmodium falciparum [2] it was 5.15. For the same molecule, the Ratio IC50 in data set [3] was 1.9. Besides, the IC50 at 1 day in [4] is 5500 nM. Also, the selectivity ratio in [5] stood at 1.5. Also, in data set [6], the inhibition is greater than 75%.
On to `COc1ccc2c3ccnc(C)c3n(CCC(=O)NCCNc3ccnc4cc(Cl)ccc34)c2c1`, for which the IC50 at 1 day in [4] came out at 12800 nM. For the same molecule, the selectivity ratio in data set [5] was 795. For the same molecule, in [6], the inhibition is less than 50%.
For `Clc1ccc2c(OCc3cn(Cc4nccc5c4[nH]c4ccccc45)nn3)ccnc2c1`, the pIC50 in the data set on Plasmodium falciparum [1] was less than 4.55; with Plasmodium falciparum [2], less than 4.56. Further, the IC50 at 1 day in [4] was greater than 25000 nM. In data set [5], the selectivity ratio is greater than 0.9. Moreover, the inhibition in data set [6] was less than 50%.
Consider `CCN(CC)CCCC(C)Nc1ccnc2cc(Cl)ccc12` (configuration not stated), for which the inhibition in data set [6] was greater than 75%.
Take `Cc1nccc2c1[nH]c1cc(OCCNC(=O)CNc3ccnc4cc(Cl)ccc34)ccc12`: the pIC50 with Plasmodium falciparum [1] was 6.63; in the data set on Plasmodium falciparum [2], 6.51. Besides, the Ratio IC50 in data set [3] worked out at 1.3. In [4], the IC50 at 1 day came out at 15900 nM. Besides, in data set [5], the selectivity ratio stood at 68.1. In addition, the inhibition in data set [6] is 50%.
Turning to `O=C(CNc1ccnc2cc(Cl)ccc12)NCc1nccc2c1[nH]c1ccccc12`, the figures for the pIC50 in the data set on Plasmodium falciparum [1] and with Plasmodium falciparum [2] were 7.27 and 6.77, respectively. In data set [3], the Ratio IC50 was found to be 3.1. The IC50 at 1 day in data set [4] stood at 7800 nM. Besides, in data set [5], the selectivity ratio was found to be 144. Also, in [6], the inhibition was less than 50%.
